Key:
[1] = target: HEK293 cells that stably express human DAAO (Homo sapiens (Human), UniProt P14920); assay: Inhibitory activity test at cellular level using DAAO-expressing cells; format: cell-based; conditions: D-alanine substrate
Protocol: HEK293 cells that stably express human DAAO were suspended in Cellbanker solution at 5×10^6 cells/ml and cryopreserved at −80° C. At the time of measurement, the cells were centrifuged at 1000 rpm for one min and the Cellbanker solution was removed. […] A 4% DMSO buffer solution (50 mM sodium phosphate [pH 7.5], 0.02% CHAPS) of the test compound (4 μL) was added to a 384-well black, low volume plate, the cell suspension (4 μL) was added, and the mixture was incubated at room temperature for 15 min.
Reverse transcription was performed on human normal kidney tissue-derived RNA (Clontech Corp.) using reverse transcriptase (SuperScriptIII, Life Technologies Corporation) and oligo (dT) primer (Life Technologies Corporation) according to the protocol of the kit (Life Technologies Corporation) and cDNA was synthesized. Then, using human DAAO_HindIII_F represented by Sequence No. 1 and human DAAO_BamHI_R represented by Sequence No. 2, a PCR reaction (35 cycles of 98° C. for 15 sec, 55° C. for 15 sec and 68° C. for 1 min 30 sec) was performed using DNA polymerase (PrimeSTAR, TAKARA BIO INC.) and cDNA obtained as above as a template. […] The PCR product was cloned in a cloning vector (pCR2.1-TOPO Cloning Kit, Life Technologies Corporation). The sequence of the insert was determined by the dideoxy sequence method (BigDye Terminator v3.1 Cycle Sequencing Kit; Life Technologies Corporation).
To express the ORF full length of DAAO as a protein, the above-mentioned vector was subjected to an enzyme reaction with restriction enzymes HindIII and BamHI at 37° C. for 3 hr, and the restriction enzyme-treated DNA fragment was purified. The DNA fragment containing the ORF was cloned to HindIII and BamHI sites present in the multiple cloning site of the expression vector (pcDNA3.1(+): Invitrogen Co.), whereby an expression plasmid (hDAAO/pcDNA3.1) was constructed.
Then, HEK293 cells were transfected to obtain the forced expression cell line. The cells were spread on a collagen-coated 24-well plate (Corning) to contain 1.0×10^5 cells per well on the day before transfection and, using Lipofectamine 2000 (Invitrogen) and hDAAO/pcDNA3.1, transfected according to the protocol. Thereafter, subculture was performed several times using 800 μg/mL geneticin, whereby a drug resistant cell line was obtained.
To confirm acquisition of the human DAAO expression cell line, the cells were spread on a collagen-coated 384-well black, clear bottom plate to 2.5×10^4 per well, and the cells were cultured at 37° C. in the presence of 5% CO2 for 24 hr. After culturing, the culture supernatant was removed, and a solution containing flavin adenine dinucleotide was added to Hanks-20 mM Hepes (pH 7.4) buffer to 5.5 μg/mL, added by 20 μL per well to the wells from which the supernatant had been removed, and the mixture was allowed to react at 37° C. in the presence of 5% CO2 for 1 hr.

[2] = target: recombinant human DAAO protein (Homo sapiens (Human), UniProt P14920); assay: DAAO inhibitory activity test (H2O2 production, Amplex red/HRP fluorescence); format: biochemical; conditions: recombinant human DAAO 15 nM, D-alanine substrate, FAD, pH 7.5
Protocol: The DAAO inhibitory activity was measured by assaying the amount of hydrogen peroxide (H2O2) produced by reacting DAAO protein with flavin adenine dinucleotide (FAD) and D-alanine. The amount of H2O2 was determined by measuring the fluorescence generated on conversion of Amplex red (manufactured by Invitrogen Co.) into resorufin by the reaction of H2O2 with horseradish peroxidase (HRP).
Escherichia coli strain BL21(DE3) (manufactured by Novagen) was transformed with the constructed human DAAO expression vector, inoculated into LB culture medium containing kanamycin at a final concentration of 20 μg/mL, and shake-cultured at 37° C. overnight. The multiplied transformant was inoculated into Terrific Broth containing kanamycin at a final concentration of 20 μg/mL, and shake-cultured at 37° C. until it reached OD600=3.0. Thereafter, the culture was cooled to 30° C., and expression was induced with 1 mM IPTG. After 20 hours, bacterial pellets were recovered by centrifugation.
The bacterial pellets recovered as above were suspended in a lysis buffer (17 mM sodium pyrophosphate buffer pH 8.3, 100 μM FAD, 1 mM sodium benzoate, 1 mM PMSF, 14 mM β-mercaptoethanol, 0.2 mg/mL lysozyme) and the bacteria were fractured by sonication. The sonicated liquid was centrifuged and the supernatant was recovered. To remove the nucleic acid, to this supernatant were sequentially added NaCl (final concentration 0.5M) and 0.05% ethyleneimine (polymer) and, after thorough mixing, the supernatant was recovered by centrifugation. The supernatant was heat treated at 55° C. for 15 min, and the supernatant was recovered by centrifugation. To this supernatant was added 40% saturated ammonium sulfate and, after thorough mixing, the salt precipitate was recovered by centrifugation. The obtained salt precipitate was redissolved in buffer A (50 mM potassium phosphate buffer pH 7.4, 10% glycerol, 200 μM sodium benzoate, 10 μM FAD, 20% saturated ammonium sulfate), and filtered through a 0.22 μm filter (manufactured by Millipore). The obtained filtrate was applied to a hydrophobic interaction column Butyl-S Sepharose 6 Fast Flow (manufactured by GE Healthcare Life Sciences) and eluted with buffer B (10 mM Tris buffer solution pH 8.0, 200 μM sodium benzoate, 10% glycerol, 10 μM FAD). The eluent was applied to an anion-exchange column, Q Sepharose Fast Flow (manufactured by GE Healthcare Life Sciences) and eluted using an NaCl concentration gradient. The eluate was replaced with buffer B (sic) using Amicon Ultra-15 10 kDa (manufactured by Millipore), and thereafter applied to an anion-exchange column, RESOURCE Q 6 mL (manufactured by GE Healthcare Life Sciences), and eluted with an NaCl concentration gradient. The eluate was concentrated using Amicon Ultra-15 10 kDa, thereafter applied to a HiLoad 26/600 Superdex 200 pg (manufactured by GE Healthcare Life Sciences) gel filtration column equilibrated with buffer C (10 mM potassium phosphate buffer pH 7.4, 0.5M NaCl, 400 μM sodium benzoate, 20 μM FAD), and the DAAO protein dimer fraction was recovered. The recovered DAAO protein was replaced (sic) with buffer D (10 mM trisodium citrate, 20 μM FAD, 400 μM sodium benzoate) using Amicon Ultra-15 10 kDa, concentrated to 10 mg/mL and cryopreserved at −80° C.

IC50 [2] [nM] | SMILES | IC50 [1] [nM]
6.1 | Cc1ccc(CCc2cc(O)c(=O)[nH]n2)cc1 [Example 13] | 14
2.5 | Cc1cccc(CCc2cc(O)c(=O)[nH]n2)c1 [Example 20] | 4.6
8.1 | COCCCc1cc(O)c(=O)[nH]n1 [Example 26] | 
6.9 | CCCCc1cc(O)c(=O)[nH]n1 [Example 29] | 13
5.2 | COc1ccc(SCc2cc(=O)c(O)n[nH]2)cc1 [Example 47] | 12
2.3 | O=c1[nH]nc(CCc2cccc3ccccc23)cc1O [Example 56] | 8.8
44 | O=c1[nH]cc(CCC2CCCCC2)cc1O [Example 58] | 
2.9 | O=c1cc(COc2ccc(F)cc2)[nH]nc1O [Example 231] | 13
2.3 | O=c1cc(COc2cccc(F)c2)[nH]nc1O [Example 232] | 13

SMILES | IC50 [2] [nM] | IC50 [1] [nM]
O=c1[nH]nc(CCc2ccc(-c3ccccc3)cc2)cc1O [Example 15] | 1.2 | 16
O=c1[nH]nc(CCc2ccc(F)cc2F)cc1O [Example 21] | 2.2 | 5.5
Cc1ccccc1CCc1cc(O)c(=O)[nH]n1 [Example 22] | 3.3 | 8.4
CC(C)(C)c1ccc(CCc2cc(O)c(=O)[nH]n2)cc1 [Example 25] | 6.6 | 18
O=c1[nH]nc(CCc2ccc(OC(F)(F)F)cc2)cc1O [Example 28] | 8.1 | 18
Cc1cc(C)cc(CCc2cc(O)c(=O)[nH]n2)c1 [Example 40] | 4.7 | 9.8
O=c1[nH]nc(CCCCc2ccccc2)cc1O [Example 52] | 2.5 | 11

Source: US9212147B2, “Dihydroxy aromatic heterocyclic compound” (TAKEDA PHARMACEUTICAL COMPANY LIMITED, priority 2011, dated 2015)
